Measured values as given in paper PMC7739374 (ACS chemical biology, 2020).
Where a SMILES comes first, the peptide text is derived from it. [ ]: non-standard residue; d: D form. β3hI = CC[C@H](C)[C@H](N)CC(=O)O; β3hE = N[C@@H](CCC(=O)O)CC(=O)O; β3hA = C[C@H](N)CC(=O)O

Key:
[1] = Tryptic digestion, HPLC-based proteolytic stability assay; format: in vitro ADME
[2] = test system: recombinant H-Ras; details: within range of full-length Sos; cited from earlier work
[3] = test system: Ras activation and ERK signaling; details: cited from earlier work
[4] = test system: trypsin; assay: Tryptic digestion, HPLC-based proteolytic stability assay; format: in vitro ADME
[5] = test system: proteinase K; format: in vitro ADME
[6] = test system: H358 (K-Ras G12C) lung cancer cells; assay: MTT cell viability; format: cell-based; details: 72 hours

half-life ([1]; trypsin) [h]	half-life ([1]; isolated enzyme trypsin) [h]	fold increase in half-life, tryptic digestion [4]	fold increase in half-life with proteinase K [5] [fold]	SMILES	affinity for recombinant H-Ras [2]	modulation of Ras activation and ERK signaling [3]	effect on cell viability, H358 [6]
1.6				CC[C@H](C)[C@H](NC(=O)CNC(=O)[C@H](CCC(=O)O)NC(=O)[C@H](Cc1ccccc1)NC(C)=O)C(=O)N[C@@H](Cc1ccc(O)cc1)C(=O)N[C@@H](CCCNC(=N)N)C(=O)N[C@@H](CC(C)C)C(=O)N[C@@H](CCC(=O)O)C(=O)N[C@@H](CC(C)C)C(=O)N[C@@H](CC(C)C)C(=O)N[C@@H](CCCCN)C(=O)N[C@@H](C)C(=O)N[C@@H](CCC(=O)O)C(=O)N[C@@H](CCC(=O)O)C(=O)N[C@@H](C)C(=O)N[C@@H](CC(N)=O)C(N)=O [αUNCSOS] (Ac-FEGIYRLELLKAEEAN-NH2; N-terminus and C-terminus assumed)			
3.1				CC[C@H](C)[C@H](NC(=O)CN1C/C=C/CCC(=O)N[C@@H](Cc2ccccc2)C(=O)N[C@@H](CCC(=O)O)C1=O)C(=O)N[C@@H](Cc1ccc(O)cc1)C(=O)N[C@@H](CCCNC(=N)N)C(=O)N[C@@H](CC(C)C)C(=O)N[C@@H](CCC(=O)O)C(=O)N[C@@H](CC(C)C)C(=O)N[C@@H](CC(C)C)C(=O)N[C@@H](CCCCN)C(=O)N[C@@H](C)C(=O)N[C@@H](CCC(=O)O)C(=O)N[C@@H](CCC(=O)O)C(=O)N[C@@H](C)C(=O)N[C@@H](CC(N)=O)C(N)=O [HBSSOS]	micromolar affinity	concentration-dependent manner	
	13.6	8.5 fold		CC[C@H](C)[C@@H](CC(=O)N[C@@H](Cc1ccc(O)cc1)C(=O)N[C@@H](CCCNC(=N)N)C(=O)N[C@@H](CC(C)C)C(=O)N[C@@H](CCC(=O)O)CC(=O)N[C@@H](CC(C)C)C(=O)N[C@@H](CC(C)C)C(=O)N[C@@H](CCCCN)C(=O)N[C@@H](C)CC(=O)N[C@@H](CCC(=O)O)C(=O)N[C@@H](CCC(=O)O)C(=O)N[C@@H](C)C(=O)N[C@@H](CC(N)=O)C(N)=O)NC(=O)CNC(=O)[C@H](CCC(=O)O)NC(=O)[C@H](Cc1ccccc1)NC(C)=O [α3βUNCSOS] (Ac-FEG[β3hI]YRL[β3hE]LLK[β3hA]EEAN-NH2; N-terminus and C-terminus assumed)			
	17.6	~ 6 fold	360	CC[C@H](C)[C@@H](CC(=O)N[C@@H](Cc1ccc(O)cc1)C(=O)N[C@@H](CCCNC(=N)N)C(=O)N[C@@H](CC(C)C)C(=O)N[C@@H](CCC(=O)O)CC(=O)N[C@@H](CC(C)C)C(=O)N[C@@H](CC(C)C)C(=O)N[C@@H](CCCCN)C(=O)N[C@@H](C)CC(=O)N[C@@H](CCC(=O)O)C(=O)N[C@@H](CCC(=O)O)C(=O)N[C@@H](C)C(=O)N[C@@H](CC(N)=O)C(N)=O)NC(=O)CN1C/C=C/CCCC(=O)N[C@@H](Cc2ccccc2)C(=O)N[C@@H](CCC(=O)O)C1=O [α3βHBSSOS]			impacts viability of H358 cells at higher concentrations
